Measured values from patent US9839614B2, “Nanoparticle and polymer formulations for thyroid hormone analogs, antagonists, and formulations and uses thereof” (NANOPHARMACEUTICALS LLC, priority 2009, dated 2017).
Several values for one entry are separate records, joined by “and”; a condition that tells them apart may be missing. Equal values may be shown once.

Tests used:
[1] = tested on: matrigel plug angiogenesis; test: Mouse matrigel model of angiogenesis (plug hemoglobin); assay type: in vivo, mice (C57BL/6NCr)
Protocol: Normal male mice (C57BL/6NCr) 6-8 weeks of age and weighing ˜20 g were purchased from Taconic farm. Animals were housed 4 per cage, in controlled conditions of temperature (20-24° C.); humidity (60-70%) and 12 hrs. light/dark cycle provided with food and water ad libitum. […] Aliquots of matrigel were placed into cold polypropylene tubes to prevent the matrigel from solidifying and the angiogenesis promoter added to matrigel with or without agonist. Mice were treated daily. Matrigel was subcutaneously injected as triple injection per animal at 100 μL/animal. At day 14 post plug implant all animals were killed in CO2 chamber and matrigel plugs were collected. Plug hemoglobin content was analyzed from three implants/mice (n=6 per group) to measure angiogenesis.
The matrigel plugs dissected from the mice were carefully stripped of any remaining peritoneum. The plugs were placed into 0.5 mL tube of ddH2O and homogenized for 5-10 min. […] Absorbance was read with a Microplate Manager ELISA reader at 540 nm. […] Hemoglobin concentration is a reflection of the number of blood vessels in the plugs.

[2] = molecular target: TTR (Homo sapiens, UniProt P02766); settings: cited from earlier work
[3] = tested on: human medullary carcinoma of the thyroid (MTC) xenografts; test: MTC xenograft in nude mice; settings: over the course of administration
Protocol: Human medullary carcinoma cells (TT, Catalog No. CRL-1803) were purchased from American Type Culture Collection (Manassas, Va.) and cultured as instructed by the supplier, using a complete growth medium consisting of F-12K medium with 10% FBS. Cells were cultured in 5% CO2/air atmosphere at 37 C to sub-confluence and then treated with 0.25% (w/v) trypsin/EDTA to affect cell release from the culture vessel. After washing with culture medium, the cells were suspended in DMEM (free of phenol red and FBS) and counted. • Tetrac versus tetrac NP distribution in h-MTC. […] Female NCr nude homozygous mice aged 5-6 weeks and body weights of 20 g were purchased form Taconic Farms (Hudson N.Y.). Animals were maintained under specific pathogen-free conditions and housed 4 animals per cage, under controlled conditions of temperature (20-24° C.) and humidity (60-70%) and a 12 h light/dark cycle. Water and food were provided ad libitum.

[4] = tested on: P-gp, GST and SOD in MCF7/R cells; test: Western blot of drug resistance genes; assay type: cell-based; settings: 24 h
Protocol: FIG. 15A is a Western blot showing the expression of P-gp, GST and SOD in wild type (W) drug sensitive and resistant (R) MCF7 cells.
The cells were treated for 24 h with each drug alone or the combination of both, after that, expression of drug resistance molecules was determined by Western blot using specific antibodies.

[5] = tested on: GL261 murine brain tumor cells; test: GL261 sublethal damage repair (SLDR), split dose; assay type: cell-based
Protocol: SLDR was measured at 10% immediate survival level as determined from the acute single dose curve for both control and Tetrac-treated cells in both growth states (i.e. exponentially growing and plateau phase cells. Flasks were irradiated with one-half of the total dose and returned to the 37° C. incubator. At increasing periods of time, flasks were removed, and given the second half of the immediate 10% survival dose. Survival was measured at 0, 0.5, 1.0, 1.5, 2.0, 3.0, 4.0, 6.0, 8.0, and 10.0 hours after the initial dose.
To investigate the effects of tetrac on SLDR and PLDR, cells were chosen that had been given a one-hour treatment with tetrac at two different times, i.e., at 70 and 270 hours post-seeding).

[6] = tested on: GL261 murine brain tumor cells; test: GL261 growth curve, cell volumes/areas and colony forming efficiency; assay type: cell-based
Protocol: 1×10^5 cells per 25 cm^2 flask at time zero (density 40 cells/mm^2). Three flasks were utilized at each time period. The medium in the flasks was not changed over the duration of the growth curve (unfed cultures). Data were taken daily from day zero to day 11.5 post-seeding and cell numbers, age distributions, and apoptotic percentages were determined. After growth curve shapes (without and with 2 μM tetrac) were determined, irradiation times at 70 and 270 hour post-seeding were chosen.
To obtain exponential and plateau phase cell numbers, we trypsinized ([…] trypsin-EDTA) cells for 5 min at 37° C.
For determination of CCDTs, the cell numbers per flask were determined on a daily basis. A four-day interval in the exponential region of growth to obtain the CCDTs, yielding a total of 12 estimations for analysis was utilized. A regression analysis was performed using the (log) of the cell number versus the linear time in days (SigmaPlot, V. 10, Systat Software, Inc., Point Richmond, Calif.). The log slope value and its standard error (SE) were determined, and the SE was converted to the 95% confidence limits using a two-tailed t-table at N−1 degrees of freedom where N is the number of samples. (See Goldstein, A. In: Biostatistics, New York, The MacMillan Co., 1964, p. 140-146).

## O=C(O)Cc1cc(I)c(Oc2cc(I)c(O)c(I)c2)c(I)c1 [Tetrac, tetraiodothyroacetic acid]
[1]; FGF 100 ng + Tetrac or analog 10 μg/plug
  Mean inhibition of angiogenesis (%): 90 ± 13%
[1]; T4 + antagonist, each 10 μg/matrigel plug
  Mean inhibition of angiogenesis (%): 89 ± 11%
[1]; Tetrac 10 μg
  inhibition of FGF induced angiogenesis: 85%
[1]; Tetrac 30 μg
  inhibition of FGF induced angiogenesis: 91%
[2]
  affinity of TTR for Tetrac relative to that for T4: 100 times
[3]
  decrease in tumor tissue hemoglobin content: 66%
[4]
  expression of P-glycoprotein, SOD, and GST-π: none of these genes was significantly altered
[5]; Tetrac 2 uM, 6 to 8 hours post-irradiation
  cellular repair of x-ray damage (FIG. 58): no repair of x-ray damage
[5]; exponential Tetrac-treated cells, 2 hours after the first dose
  SLDR recovery ratio: 1.8
[5]; exponential cells
  factor of reduction of SLDR: 1.8
[5]; plateau phase cells, three hours post-irradiation
  factor of decrease in cellular repair: ~3
[5]; plateau phase, 3 hours after the initial dose
  survival relative to survival at 0 hours: approximately 36%
[6]; 2 μM Tetrac
  decrease of final saturation density: about 50%
  saturation density of control relative to tetrac-treated cells: approximately 2.4 times
[6]; 2 μM Tetrac, exponential growth
  cell culture doubling time, Tetrac-treated GL261 cells: 43.8 ± 3.8 h and 43.8 h
[6]; 2 μM Tetrac, control 20 hours
  onset of exponential growth: about 40 hours
[6]; Exponential Cells (+Tetrac)
  Mean nuclear area (μm^2): 1180 μm^2
  Median Volume (μm^3): 3850 μm^3
  Median cell area (μm^2): 2814 μm^2
  nuclear/cell area (%): 42%
[6]; Plateau phase Cells (+Tetrac)
  Mean nuclear area (μm^2): 310 μm^2
  Median Volume (μm^3): 2780 μm^3
  Median cell area (μm^2): 700 μm^2
  nuclear/cell area (%): 44%
[6]; Plateau phase Cells (+Tetrac), with feeder cells
  CFE (%): 8.8%
[6]; exponential phase
  cell size relative to control GL261 cells: 1.4 times
[6]; plateau phase
  cell size relative to control GL261 cells: 1.9 times
